How the values were obtained:
Assay type in all cases: cell-based
CFTR-R117H = target: T1, CFTR-R117H (Homo sapiens, UniProt P13569, R117H); assay: YFP-halide influx assay for the CFTR-R117H; conditions: CFTR-R117H mutant; read-out: EC50 measured by YFP-halide influx assay for the CFTR-R117H
T1 construct: expressed in transfected cells
Procedure, shortened: (§1)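 HEK293 cells reverse-transfected with mutant CFTR and halide-sensitive YFP H148Q/I152L/F47L reporter, then expressed 24 h at 37 °C, 5% CO2. Fluorescence quenching recorded for 7 s after I^− injection; response expressed as 1−F/F0, with EC50 derived from response versus compound concentration.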

CFTR-S549N = target: T2, CFTR-S549N (Homo sapiens, UniProt P13569, S549N); assay: YFP-halide influx assay for the CFTR-S549N; conditions: CFTR-S549N mutant; read-out: EC50 measured by YFP-halide influx assay for the CFTR-S549N
T2 construct: expressed in transfected cells
T2 sequence (P13569 whole entry S549N): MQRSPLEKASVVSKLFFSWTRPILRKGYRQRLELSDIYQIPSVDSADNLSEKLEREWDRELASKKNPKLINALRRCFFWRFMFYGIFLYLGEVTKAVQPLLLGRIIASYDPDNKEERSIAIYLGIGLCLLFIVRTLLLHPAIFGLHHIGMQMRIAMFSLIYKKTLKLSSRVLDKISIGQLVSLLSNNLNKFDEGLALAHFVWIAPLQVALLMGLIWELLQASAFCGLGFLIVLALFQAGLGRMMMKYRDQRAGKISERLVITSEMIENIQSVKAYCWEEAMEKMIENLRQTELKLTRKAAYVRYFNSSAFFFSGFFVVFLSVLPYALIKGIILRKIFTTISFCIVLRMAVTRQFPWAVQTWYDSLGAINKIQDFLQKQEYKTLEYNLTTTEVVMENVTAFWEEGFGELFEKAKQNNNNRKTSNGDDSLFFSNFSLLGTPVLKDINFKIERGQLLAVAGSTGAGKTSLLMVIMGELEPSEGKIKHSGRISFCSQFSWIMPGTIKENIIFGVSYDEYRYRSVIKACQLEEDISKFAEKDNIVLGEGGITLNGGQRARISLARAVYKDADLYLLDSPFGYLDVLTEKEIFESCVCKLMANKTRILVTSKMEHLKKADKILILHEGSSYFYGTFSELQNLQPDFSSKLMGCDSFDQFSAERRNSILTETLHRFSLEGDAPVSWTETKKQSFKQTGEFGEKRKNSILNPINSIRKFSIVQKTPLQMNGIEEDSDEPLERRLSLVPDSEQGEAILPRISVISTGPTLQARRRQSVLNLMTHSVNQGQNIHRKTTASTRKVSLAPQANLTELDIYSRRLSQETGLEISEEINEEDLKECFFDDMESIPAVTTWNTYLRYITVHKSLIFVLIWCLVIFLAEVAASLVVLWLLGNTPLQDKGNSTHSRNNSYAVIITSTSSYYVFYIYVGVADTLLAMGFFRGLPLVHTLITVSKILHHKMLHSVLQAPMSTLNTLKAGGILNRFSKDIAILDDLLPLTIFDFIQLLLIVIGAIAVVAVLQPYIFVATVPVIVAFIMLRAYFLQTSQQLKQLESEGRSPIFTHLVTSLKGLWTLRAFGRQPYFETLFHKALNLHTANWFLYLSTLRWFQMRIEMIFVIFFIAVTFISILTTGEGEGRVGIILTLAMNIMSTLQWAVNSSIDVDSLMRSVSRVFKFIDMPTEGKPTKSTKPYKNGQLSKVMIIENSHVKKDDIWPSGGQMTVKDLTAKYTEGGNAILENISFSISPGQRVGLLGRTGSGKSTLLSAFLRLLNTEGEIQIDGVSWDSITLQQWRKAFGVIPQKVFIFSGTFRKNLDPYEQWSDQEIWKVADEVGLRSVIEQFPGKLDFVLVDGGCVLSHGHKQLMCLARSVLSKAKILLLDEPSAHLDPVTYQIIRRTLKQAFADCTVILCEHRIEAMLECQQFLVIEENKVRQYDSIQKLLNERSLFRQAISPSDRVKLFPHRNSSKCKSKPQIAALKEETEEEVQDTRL
Procedure, shortened: as §1

CFTR-G178R = target: T3, CFTR-G178R (Homo sapiens, UniProt P13569, G178R); assay: YFP-halide influx assay for the CFTR-G178R; conditions: read-out: EC50 measured by YFP-halide influx assay for the CFTR-G178R
T3 construct: expressed in transfected cells
T3 sequence (P13569 whole entry G178R): as the sequence (P13569 whole entry S549N) above, with G178R, N549S counted along it
Procedure, shortened: as §1

CFTR ΔF508 mutant [1] = target: T4, CFTR ΔF508 mutant (Homo sapiens, UniProt P13569, DEL508-508); assay: YFP-halide influx assay for the CFTR-ΔF508 mutation (96 well, CFBE41o- cells); conditions: compounds of the invention, 96 well, forskolin 10.67 μM, read-out: EC50 measured by YFP-halide influx assay for the CFTR-ΔF508
T4 construct: expressed in transfected cells; host or cells: CFBE41o- (adenoviral transduction)
T4 sequence (P13569 with tags, fused parts or gaps DEL508-508): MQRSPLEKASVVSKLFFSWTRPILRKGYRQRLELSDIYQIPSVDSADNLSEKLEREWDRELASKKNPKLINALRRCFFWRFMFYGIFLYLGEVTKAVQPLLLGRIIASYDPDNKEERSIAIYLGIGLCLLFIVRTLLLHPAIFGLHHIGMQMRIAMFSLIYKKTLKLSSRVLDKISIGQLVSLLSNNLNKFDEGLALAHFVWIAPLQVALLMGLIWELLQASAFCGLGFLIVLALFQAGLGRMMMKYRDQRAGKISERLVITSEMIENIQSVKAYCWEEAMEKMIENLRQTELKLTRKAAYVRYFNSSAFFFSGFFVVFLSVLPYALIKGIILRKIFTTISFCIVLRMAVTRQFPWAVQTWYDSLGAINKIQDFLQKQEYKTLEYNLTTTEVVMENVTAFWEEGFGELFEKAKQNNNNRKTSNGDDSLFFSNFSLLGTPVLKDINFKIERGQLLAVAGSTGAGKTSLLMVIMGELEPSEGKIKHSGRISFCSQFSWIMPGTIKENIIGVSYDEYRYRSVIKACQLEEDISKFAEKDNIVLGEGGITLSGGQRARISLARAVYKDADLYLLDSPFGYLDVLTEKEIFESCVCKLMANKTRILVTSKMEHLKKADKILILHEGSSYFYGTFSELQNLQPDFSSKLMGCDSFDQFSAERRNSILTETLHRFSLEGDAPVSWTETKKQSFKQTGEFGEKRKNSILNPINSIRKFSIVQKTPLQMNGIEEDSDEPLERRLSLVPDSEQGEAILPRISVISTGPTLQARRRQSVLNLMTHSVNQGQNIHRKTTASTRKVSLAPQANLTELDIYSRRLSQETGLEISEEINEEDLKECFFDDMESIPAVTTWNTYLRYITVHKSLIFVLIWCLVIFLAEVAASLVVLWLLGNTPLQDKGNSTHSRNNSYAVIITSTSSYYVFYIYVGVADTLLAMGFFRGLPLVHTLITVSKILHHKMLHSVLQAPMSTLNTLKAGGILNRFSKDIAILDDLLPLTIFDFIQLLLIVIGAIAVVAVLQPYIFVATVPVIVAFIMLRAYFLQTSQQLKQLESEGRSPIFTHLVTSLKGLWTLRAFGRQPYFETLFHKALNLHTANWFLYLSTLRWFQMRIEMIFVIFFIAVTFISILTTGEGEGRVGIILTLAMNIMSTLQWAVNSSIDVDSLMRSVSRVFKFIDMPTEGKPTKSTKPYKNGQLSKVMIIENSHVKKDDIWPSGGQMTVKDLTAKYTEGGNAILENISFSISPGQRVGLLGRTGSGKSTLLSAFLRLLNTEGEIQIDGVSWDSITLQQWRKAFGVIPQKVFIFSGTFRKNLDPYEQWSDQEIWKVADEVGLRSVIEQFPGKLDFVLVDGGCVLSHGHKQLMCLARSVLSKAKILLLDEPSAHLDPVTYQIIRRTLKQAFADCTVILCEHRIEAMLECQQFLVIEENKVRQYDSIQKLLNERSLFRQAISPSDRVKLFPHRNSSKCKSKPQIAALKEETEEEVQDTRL
Procedure, shortened: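 CFBE41o- cells were adenovirally transduced with CFTR ΔF508 and the halide-sensitive YFP H148Q/I152L. They were then corrected either at 27 °C for 24 h or with a CFTR modulator for 24 h at 37 °C. After iodide injection, YFP quenching over 7 s was expressed as 1−F/F0, and EC50 was derived from the concentration–response plot.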

CFTR ΔF508 mutant [2] = target: T4, CFTR ΔF508 mutant; assay: YFP-halide influx assay for the CFTR-ΔF508 mutation (384 well, CFBE41o- cells, FDSS/μCell); conditions: forskolin 10.67 μM, fluorescence after 36 seconds, read-out: EC50 measured by YFP-halide influx assay for the CFTR-ΔF508
Procedure, shortened: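 CFBE41o- cells were adenovirally transduced with ΔF508 CFTR and the YFP H148Q/I152L reporter. Cells were then held 24 h at 27 °C or treated 24 h at 37 °C with a CFTR modulator. Iodide-induced quench was recorded for 2 min, and EC50 was derived from 1−F/F0 at 36 s against compound concentration.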

T1 sequence (P13569 whole entry R117H): as the sequence (P13569 whole entry S549N) above, with R117H, N549S counted along it

| Structure (SMILES) | EC50 (CFTR-R117H) | EC50 (CFTR-S549N) | EC50 (CFTR-G178R) | EC50 (CFTR ΔF508 mutant [1]) | EC50 (CFTR ΔF508 mutant [2]) |
| --- | --- | --- | --- | --- | --- |
| CC1(C)Cc2c(sc(NC(=O)c3ccn[nH]3)c2C(N)=O)C(C)(C)O1 [Compound 2, N-(3-carbamoyl-5,5,7,7-tetramethyl-5,7-dihydro-4H-thieno[2,3-c]pyran-2-yl)-1H-pyrazole-5-carboxamide] | 166 nM | 211 nM | 56.9 nM | 10 nM | 3.4 nM |
| CC1(C)Cc2c(sc(NC(=O)C3(O)CC3)c2C(N)=O)C(C)(C)O1 [Compound 4, 2-(1-hydroxycyclopropanecarboxamido)-5,5,7,7-tetramethyl-5,7-dihydro-4H-thieno[2,3-c]pyran-3-carboxamide] | – | – | – | 32 nM | 22.6 nM |
| CC1(C)Cc2c(sc(NC(=O)C3(CO)CC3)c2C(N)=O)C(C)(C)O1 [Compound 9, 2-(1-(hydroxymethyl)cyclopropanecarboxamido)-5,5,7,7-tetramethyl-5,7-dihydro-4H-thieno[2,3-c]pyran-3-carboxamide] | 433 nM | 902 nM | 699 nM | 28 nM | 15.1 nM |
| CC1(C)Cc2c(sc(NC(=O)C(C)(C)CO)c2C(N)=O)C(C)(C)O1 [Compound 10, 2-(3-hydroxy-2,2-dimethylpropanamido)-5,5,7,7-tetramethyl-5,7-dihydro-4H-thieno[2,3-c]pyran-3-carboxamide] | – | – | – | 121 nM | 74.6 nM |
